Assay results from PMC9224473 (International Journal of Molecular Sciences, 2022).
Values after ≈ are worked out from the molar mass of the structure shown.

Experiments:
S. pasteuri KR 4358 = experiment: MIC, broth microdilution, clinical strain; assay type: cell-based, Staphylococcus pasteuri; settings: Staphylococcus pasteuri, KR4358, 19 h, 35 °C
S. aureus NCTC 4163 = experiment: MIC, broth microdilution, standard strain; assay type: cell-based, Staphylococcus aureus; settings: Staphylococcus aureus, NCTC4163, 19 h, 35 °C
S. aureus T 5595 = experiment: MIC, broth microdilution, clinical strain; assay type: cell-based, Staphylococcus aureus; settings: Staphylococcus aureus, T5595, 19 h, 35 °C
P. aeruginosa ATCC 15442 = experiment: MIC, broth microdilution, standard strain; assay type: cell-based, Pseudomonas aeruginosa; settings: Pseudomonas aeruginosa, ATCC15442, 19 h, 35 °C
E. coli 600 = experiment: MIC, broth microdilution, clinical strain; assay type: cell-based, Escherichia coli; settings: Escherichia coli, 600, 19 h, 35 °C
[1] = test system: S. epidermidis ATCC 12228; experiment: MIC, broth microdilution, standard strain; assay type: cell-based, Staphylococcus epidermidis; settings: Staphylococcus epidermidis, ATCC12228, 19 h, 35 °C
S. aureus ATCC 6538 = experiment: MIC, broth microdilution, standard strain; assay type: cell-based, Staphylococcus aureus; settings: Staphylococcus aureus, ATCC6538, 19 h, 35 °C
S. epidermidis KR 4243 = experiment: MIC, broth microdilution, clinical strain; assay type: cell-based, Staphylococcus epidermidis; settings: Staphylococcus epidermidis, KR4243, 19 h, 35 °C
S. aureus T 5591 = experiment: MIC, broth microdilution, clinical strain; assay type: cell-based, Staphylococcus aureus; settings: Staphylococcus aureus, T5591, 19 h, 35 °C
[2] = test system: SW620 (human metastatic colon cancer); experiment: MTT cytotoxicity assay; assay type: cell-based; settings: Homo sapiens, SW-620, 72 h, mean SD
Protocol: (§1) The human cell lines SW480 (primary colon cancer), SW620 (lymph node metastatic colon cancer from the same patient as primary cancer cells), HCT116 (colon carcinoma), HepG2 (liver cancer), and HaCaT (immortalized keratinocytes) were obtained from the American Type Culture Collection (ATCC, Rockville, MD, USA). The SW480, SW620 and HCT116 cells were grown in MEM (ThermoSci, Waltham, MA, USA), HepG2 and HaCaT in DMEM High Glucose (Biowest SAS, Nuaillé, France) supplemented with 10% foetal bovine serum (FBS), HEPES (20 mM), and antibiotics (100 U mL^−1 of Penicillin and 100 μg mL^−1 of Streptomycin). The cells were incubated in a humidified incubator at 37 °C/5% CO2, until 80–90% confluence was reached.
The cell viability was assessed by using of MTT salt [3-(4,5-dimethylthiazol-2-yl)-2,5-diphenyltetrazolium bromide] converted by mitochondrial dehydrogenase, occurring in living cells. […] The untreated cells were used as the control.
(§2) Subsequently, the medium was removed and dimethyl sulfoxide (DMSO) with isopropanol (1:1) was added to dissolve the formazan crystals. The optical density was measured using UVM 340 reader (ASYS Hitech GmbH, Eugendorf, Austria) at a wavelength of 570 nm. The experiments were repeated three times. The cell viability was calculated as the percent of MTT reduced in treated cells versus control cells (untreated cells). The number of viable cells cultured without tested compounds was assumed as 100%. A decreased relative MTT level indicates decreased cell viability. The IC50 values were estimated using CompuSyn version 1.0.

S. aureus ATCC 29213 = experiment: MIC, broth microdilution, standard strain; assay type: cell-based, Staphylococcus aureus; settings: Staphylococcus aureus, ATCC29213, 19 h, 35 °C
[3] = test system: S. epidermidis ATCC 35984; experiment: MIC, broth microdilution, standard strain; assay type: cell-based, Staphylococcus epidermidis; settings: Staphylococcus epidermidis, ATCC35984, 19 h, 35 °C
E. coli 510 = experiment: MIC, broth microdilution, clinical strain; assay type: cell-based, Escherichia coli; settings: Escherichia coli, 510, 19 h, 35 °C
S. aureus ATCC 25923 = experiment: MIC, broth microdilution, standard strain; assay type: cell-based, Staphylococcus aureus; settings: Staphylococcus aureus, ATCC25923, 19 h, 35 °C
P. aeruginosa 659 = experiment: MIC, broth microdilution, clinical strain; assay type: cell-based, Pseudomonas aeruginosa; settings: Pseudomonas aeruginosa, 659, read-out: MIC P. aeruginosa 659, 19 h, 35 °C
E. coli 520 = experiment: MIC, broth microdilution, clinical strain; assay type: cell-based, Escherichia coli; settings: Escherichia coli, 520, 19 h, 35 °C
E. coli ATCC 25922 = experiment: MIC, broth microdilution, standard strain; assay type: cell-based, Escherichia coli; settings: 35 °C; for MIC: Escherichia coli, ATCC25922, 19 h; for MIC E. coli ATCC 25922: 19 h
[4] = test system: HaCaT (human immortal keratinocyte cell line); experiment: MTT cytotoxicity assay; assay type: cell-based; settings: Homo sapiens, HaCaT, 72 h, mean SD, read-out: IC50 HaCaT (normal cells)
Protocol: as §1
(§3) The cell viability was assessed by using of MTT salt [3-(4,5-dimethylthiazol-2-yl)-2,5-diphenyltetrazolium bromide] converted by mitochondrial dehydrogenase, occurring in living cells. The cells were seeded in 96-well plates at a density of 1 × 10^4 cells per well and allowed to adhere for 24 h at 37 °C in a CO2 humidified incubator. […]. The untreated cells were used as the control.
as §2, with “After 72 h incubation, the medium was replaced with 200 µL per well of free-serum medium containing 0.5 mg mL^−1 MTT and incubated for 4 h at 37 °C in a CO2 humidified incubator. Subsequently,” for “Subsequently,”

[5] = test system: HepG2 (human liver cancer); experiment: MTT cytotoxicity assay; assay type: cell-based; settings: Homo sapiens, HepG2, 72 h, mean SD
Protocol: as §1, §3
as §2, with “After 72 h incubation, the medium was replaced with 200 µL per well of free-serum medium containing 0.5 mg mL^−1 MTT and incubated for 4 h at 37 °C in a CO2 humidified incubator. Subsequently,” for “Subsequently,”

[6] = test system: HCT116 (human colon cancer); experiment: MTT cytotoxicity assay; assay type: cell-based; settings: Homo sapiens, HCT-116, 72 h, mean SD
Protocol: as §1, §3
as §2, with “After 72 h incubation, the medium was replaced with 200 µL per well of free-serum medium containing 0.5 mg mL^−1 MTT and incubated for 4 h at 37 °C in a CO2 humidified incubator. Subsequently,” for “Subsequently,”

[7] = test system: SW480 (human primary colon cancer); experiment: MTT cytotoxicity assay; assay type: cell-based; settings: Homo sapiens, SW480, 72 h, mean SD
Protocol: as §1, §3
as §2, with “After 72 h incubation, the medium was replaced with 200 µL per well of free-serum medium containing 0.5 mg mL^−1 MTT and incubated for 4 h at 37 °C in a CO2 humidified incubator. Subsequently,” for “Subsequently,”

Row | Compound | MIC (S. pasteuri KR 4358) | MIC (S. aureus NCTC 4163) | MIC (S. aureus T 5595) | MIC (P. aeruginosa ATCC 15442) | MIC (E. coli 600) | MIC [1] | MIC (S. aureus ATCC 6538) | MIC (S. epidermidis KR 4243) | MIC (S. aureus T 5591) | IC50 [2] | MIC (S. aureus ATCC 29213) | MIC [3] | MIC (E. coli 510) | MIC (S. aureus ATCC 25923) | MIC (P. aeruginosa 659) | MIC (E. coli 520) | MIC (E. coli ATCC 25922) | IC50 [4] | IC50 [5] | IC50 [6] | also measured
1 | CC(C)[C@@H]1CC[C@@H](C)C[C@H]1OC(=O)CCCCN1CCN(c2cc3c(cc2F)c(=O)c(C(=O)O)cn3C2CC2)CC1 [Compound 5, 1-cyclopropyl-6-fluoro-7-{4-[5-((1R,2S,5R)-2-isopropyl-5-methylcyclohexyloxy)-5-oxopentyl)piperazin-1-yl)-4-oxo-1,4-dihydroquinoline-3-carboxylic acid] | 4 µg/mL (≈ 7.02 µM) | 4 µg/mL (≈ 7.02 µM) | 4 µg/mL (≈ 7.02 µM) | 256 µg/mL (≈ 449 µM) | 64 µg/mL (≈ 112 µM) | 8 µg/mL (≈ 14 µM) | 4 µg/mL (≈ 7.02 µM) | 4 µg/mL (≈ 7.02 µM) | 2 µg/mL (≈ 3.51 µM) | 26.5 ± 2.1 µM | 4 µg/mL (≈ 7.02 µM) | 8 µg/mL (≈ 14 µM) | > 256 µg/mL | 8 µg/mL (≈ 14 µM) | > 256 µg/mL | 64 µg/mL (≈ 112 µM) | 16 µg/mL (≈ 28.1 µM) | 43.3 ± 4.4 µM | 49.4 ± 4.6 µM | 35.3 ± 1.7 µM | IC50 [7]: 55.4 ± 3.8 µM
2 | Cc1ccc(C(C)C)c(OCC(=O)N2CCN(c3cc4c(cc3F)c(=O)c(C(=O)O)cn4C3CC3)CC2)c1 [Compound 9, 1-cyclopropyl-6-fluoro-7-{4-[2-(2-isopropyl-5-methylphenoxy)acetyl]piperazin-1-yl}-4-oxo-1,4-dihydroquinoline-3-carboxylic acid] | 8 µg/mL (≈ 15.3 µM) | 2 µg/mL (≈ 3.83 µM) | 4 µg/mL (≈ 7.67 µM) | 256 µg/mL (≈ 491 µM) | 32 µg/mL (≈ 61.4 µM) | 8 µg/mL (≈ 15.3 µM) | 2 µg/mL (≈ 3.83 µM) | 8 µg/mL (≈ 15.3 µM) | 4 µg/mL (≈ 7.67 µM) | 49.1 ± 4.1 µM | 2 µg/mL (≈ 3.83 µM) | 4 µg/mL (≈ 7.67 µM) | > 256 µg/mL | 2 µg/mL (≈ 3.83 µM) | 256 µg/mL (≈ 491 µM) | 32 µg/mL (≈ 61.4 µM) | 16 µg/mL (≈ 30.7 µM) | 19.9 ± 2.2 µM | 25.7 ± 0.8 µM | 44.5 ± 4 µM | IC50 [7]: 28.2 ± 0.6 µM
3 | Cc1ccc(C(C)C)c(OC(=O)CCN2CCN(c3cc4c(cc3F)c(=O)c(C(=O)O)cn4C3CC3)CC2)c1 [Compound 11, 1-cyclopropyl-6-fluoro-7-{4-[3-(2-isopropyl-5-methylphenoxy)-3-oxopropyl]piperazin-1-yl}-4-oxo-1,4-dihydroquinoline-3-carboxylic acid] | 8 µg/mL (≈ 14.9 µM) | 4 µg/mL (≈ 7.47 µM) | 8 µg/mL (≈ 14.9 µM) | 16 µg/mL (≈ 29.9 µM) | 4 µg/mL (≈ 7.47 µM) | 4 µg/mL (≈ 7.47 µM) | 4 µg/mL (≈ 7.47 µM) | 4 µg/mL (≈ 7.47 µM) | 4 µg/mL (≈ 7.47 µM) | 43.5 ± 7.5 µM | 4 µg/mL (≈ 7.47 µM) | 4 µg/mL (≈ 7.47 µM) | 256 µg/mL (≈ 478 µM) | 4 µg/mL (≈ 7.47 µM) | 16 µg/mL (≈ 29.9 µM) | 8 µg/mL (≈ 14.9 µM) | 2 to 4 µg/mL (≈ 3.73 to 7.47 µM) | > 100 µM | 51.3 ± 4.1 µM | 39.1 ± 5.8 µM | MIC E. coli ATCC 25922 (E. coli ATCC 25922): 4 µg/mL (≈ 7.47 µM); IC50 [7]: 33.7 ± 6.6 µM
4 | Cc1ccc(C(C)C)c(OC(=O)CCCCN2CCN(c3cc4c(cc3F)c(=O)c(C(=O)O)cn4C3CC3)CC2)c1 [Compound 13, 1-cyclopropyl-6-fluoro-7-{4-[5-(2-isopropyl-5-methylphenoxy)-5-oxopentyl]piperazin-1-yl}-4-oxo-1,4-dihydroquinoline-3-carboxylic acid] | 2 µg/mL (≈ 3.55 µM) | 2 µg/mL (≈ 3.55 µM) | 2 µg/mL (≈ 3.55 µM) | 16 µg/mL (≈ 28.4 µM) | 8 µg/mL (≈ 14.2 µM) | 2 µg/mL (≈ 3.55 µM) | 2 µg/mL (≈ 3.55 µM) | 2 µg/mL (≈ 3.55 µM) | 2 µg/mL (≈ 3.55 µM) | 50.2 ± 0.8 µM | 2 µg/mL (≈ 3.55 µM) | 2 µg/mL (≈ 3.55 µM) | 128 µg/mL (≈ 227 µM) | 4 µg/mL (≈ 7.1 µM) | 128 µg/mL (≈ 227 µM) | 4 µg/mL (≈ 7.1 µM) | 2 to 4 µg/mL (≈ 3.55 to 7.1 µM) | > 100 µM | 33.8 ± 2.1 µM | 50.2 ± 3.4 µM | MIC E. coli ATCC 25922 (E. coli ATCC 25922): 4 µg/mL (≈ 7.1 µM); IC50 [7]: 48.1 ± 2.8 µM
5 | Cc1ccc(C(C)C)c(OC(=O)CCCCCN2CCN(c3cc4c(cc3F)c(=O)c(C(=O)O)cn4C3CC3)CC2)c1 [Compound 14, 1-cyclopropyl-6-fluoro-7-{4-[6-(2-isopropyl-5-methylphenoxy)-6-oxohexyl]piperazin-1-yl}-4-oxo-1,4-dihydroquinoline-3-carboxylic acid] | 2 µg/mL (≈ 3.46 µM) | 1 µg/mL (≈ 1.73 µM) | 2 µg/mL (≈ 3.46 µM) | 16 µg/mL (≈ 27.7 µM) | 8 µg/mL (≈ 13.8 µM) | 1 µg/mL (≈ 1.73 µM) | 2 µg/mL (≈ 3.46 µM) | 2 µg/mL (≈ 3.46 µM) | 4 µg/mL (≈ 6.92 µM) | 53.1 ± 0.3 µM | 2 µg/mL (≈ 3.46 µM) | 1 µg/mL (≈ 1.73 µM) | 128 µg/mL (≈ 222 µM) | 1 µg/mL (≈ 1.73 µM) | 64 µg/mL (≈ 111 µM) | 16 µg/mL (≈ 27.7 µM) | 2 to 4 µg/mL (≈ 3.46 to 6.92 µM) | 31.8 ± 1.9 µM | 44.4 ± 3.5 µM | 38.1 ± 3.4 µM | MIC E. coli ATCC 25922 (E. coli ATCC 25922): 2 µg/mL (≈ 3.46 µM); IC50 [7]: 35.2 ± 1.2 µM
